# Reference: PubChem BioAssay AID1963961 (Molecular Pharmacology Branch, DTP, NCI, 2024)
# Tested on: K98450-129-R-PDC multicell spheroids, viability
# Test: Anticancer human tumor K98450-129-R-PDC patient-derived colon adenocarcinoma cell line growth inhibition [PI3K]
# Settings: for IC50: curve of first compound; for viability, T/C: stronger effect = lower value
# Procedure, shortened: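 Complex 3D spheroids (cancer cells + endothelial HUVEC + mesenchymal stem cells); drug pairs of targeted agent x inavolisib/alpelisib/duvelisib/copanlisib; half-log series from ~Cmax, max 10 microM if Cmax unknown; endpoint viability.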
# [1] = second compound 0.00316 µM, first compound 0.0316 µM
# [2] = second compound 0.00316 µM, first compound 0.1 µM
# [3] = second compound 0.01 µM, first compound 0.0316 µM
# [4] = second compound 0.01 µM, first compound 0.1 µM
# [5] = second compound 0.0316 µM, first compound 0.0316 µM
# [6] = second compound 0.0316 µM, first compound 0.1 µM
# [7] = second compound 0.1 µM, first compound 0.0316 µM
# [8] = second compound 0.1 µM, first compound 0.1 µM
# [9] = second compound 0.316 µM, first compound 0.0316 µM
# [10] = second compound 0.316 µM, first compound 0.1 µM
# [11] = second compound 1 µM, first compound 0.0316 µM
# [12] = second compound 1 µM, first compound 0.1 µM
# 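Also: spheroids exposed to agents for seven days before read-out.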
smiles,measurement,setting,value
CC(C)n1nc(-c2ccc3oc(N)nc3c2)c2c(N)ncnc21 + COc1c(OCCCN2CCOCC2)ccc2c3n(c(=NC(=O)c4cnc(N)nc4)nc12)CCN3,IC50,second compound 0.00316 µM,> 100 nM
same,IC50,second compound 0.01 µM,> 100 nM
same,IC50,second compound 0.0316 µM,> 100 nM
same,IC50,second compound 0.1 µM,> 100 nM
same,IC50,second compound 0.316 µM,> 100 nM
same,IC50,second compound 1 µM,50.7 nM
same,"viability, T/C","second compound 0.00316 µM, first compound 0.000316 µM",107%
same,"viability, T/C","second compound 0.00316 µM, first compound 0.001 µM",97.4%
same,"viability, T/C","second compound 0.00316 µM, first compound 0.00316 µM",107%
same,"viability, T/C","second compound 0.00316 µM, first compound 0.01 µM",83.6%
same,"viability, T/C",[1],94.1%
same,"viability, T/C",[2],72.2%
same,"viability, T/C","second compound 0.01 µM, first compound 0.000316 µM",114%
same,"viability, T/C","second compound 0.01 µM, first compound 0.001 µM",86.4%
same,"viability, T/C","second compound 0.01 µM, first compound 0.00316 µM",96%
same,"viability, T/C","second compound 0.01 µM, first compound 0.01 µM",92.2%
same,"viability, T/C",[3],94.9%
same,"viability, T/C",[4],69%
same,"viability, T/C","second compound 0.0316 µM, first compound 0.000316 µM",116%
same,"viability, T/C","second compound 0.0316 µM, first compound 0.001 µM",86%
same,"viability, T/C","second compound 0.0316 µM, first compound 0.00316 µM",85.2%
same,"viability, T/C","second compound 0.0316 µM, first compound 0.01 µM",67.9%
same,"viability, T/C",[5],74%
same,"viability, T/C",[6],56.9%
same,"viability, T/C","second compound 0.1 µM, first compound 0.000316 µM",76.6%
same,"viability, T/C","second compound 0.1 µM, first compound 0.001 µM",93%
same,"viability, T/C","second compound 0.1 µM, first compound 0.00316 µM",81.7%
same,"viability, T/C","second compound 0.1 µM, first compound 0.01 µM",78.7%
same,"viability, T/C",[7],67.1%
same,"viability, T/C",[8],55.5%
same,"viability, T/C","second compound 0.316 µM, first compound 0.000316 µM",58.1%
same,"viability, T/C","second compound 0.316 µM, first compound 0.001 µM",60.9%
same,"viability, T/C","second compound 0.316 µM, first compound 0.00316 µM",66.1%
same,"viability, T/C","second compound 0.316 µM, first compound 0.01 µM",70.4%
same,"viability, T/C",[9],73.1%
same,"viability, T/C",[10],47.7%
same,"viability, T/C","second compound 1 µM, first compound 0.000316 µM",53%
same,"viability, T/C","second compound 1 µM, first compound 0.001 µM",59.4%
same,"viability, T/C","second compound 1 µM, first compound 0.00316 µM",58.5%
same,"viability, T/C","second compound 1 µM, first compound 0.01 µM",69.8%
same,"viability, T/C",[11],54.8%
same,"viability, T/C",[12],35.2%
CC1(C)CCC(CN2CCN(c3ccc(C(=O)NS(=O)(=O)c4ccc(NCC5CCOCC5)c([N+](=O)[O-])c4)c(Oc4cnc5[nH]ccc5c4)c3)CC2)=C(c2ccc(Cl)cc2)C1 + COc1c(OCCCN2CCOCC2)ccc2c3n(c(=NC(=O)c4cnc(N)nc4)nc12)CCN3,IC50,second compound 0.00316 µM,> 10000 nM
same,IC50,second compound 0.01 µM,> 10000 nM
same,IC50,second compound 0.0316 µM,> 10000 nM
same,IC50,second compound 0.1 µM,> 10000 nM
same,IC50,second compound 0.316 µM,> 10000 nM
same,IC50,second compound 1 µM,> 10000 nM
same,"viability, T/C",[1],94.9%
same,"viability, T/C",[2],112%
same,"viability, T/C","second compound 0.00316 µM, first compound 0.316 µM",107%
same,"viability, T/C","second compound 0.00316 µM, first compound 1 µM",96.1%
same,"viability, T/C","second compound 0.00316 µM, first compound 3.16 µM",93.7%
same,"viability, T/C","second compound 0.00316 µM, first compound 10 µM",97.1%
same,"viability, T/C",[3],125%
same,"viability, T/C",[4],111%
same,"viability, T/C","second compound 0.01 µM, first compound 0.316 µM",119%
same,"viability, T/C","second compound 0.01 µM, first compound 1 µM",104%
same,"viability, T/C","second compound 0.01 µM, first compound 3.16 µM",95.7%
same,"viability, T/C","second compound 0.01 µM, first compound 10 µM",86%
same,"viability, T/C",[5],101%
same,"viability, T/C",[6],96.3%
same,"viability, T/C","second compound 0.0316 µM, first compound 0.316 µM",104%
same,"viability, T/C","second compound 0.0316 µM, first compound 1 µM",99.6%
same,"viability, T/C","second compound 0.0316 µM, first compound 3.16 µM",96.8%
same,"viability, T/C","second compound 0.0316 µM, first compound 10 µM",85.1%
same,"viability, T/C",[7],72.8%
same,"viability, T/C",[8],76.8%
same,"viability, T/C","second compound 0.1 µM, first compound 0.316 µM",91.2%
same,"viability, T/C","second compound 0.1 µM, first compound 1 µM",90.5%
same,"viability, T/C","second compound 0.1 µM, first compound 3.16 µM",80.4%
same,"viability, T/C","second compound 0.1 µM, first compound 10 µM",72.7%
same,"viability, T/C",[9],60%
same,"viability, T/C",[10],48%
same,"viability, T/C","second compound 0.316 µM, first compound 0.316 µM",75.6%
same,"viability, T/C","second compound 0.316 µM, first compound 1 µM",60.6%
same,"viability, T/C","second compound 0.316 µM, first compound 3.16 µM",53.5%
same,"viability, T/C","second compound 0.316 µM, first compound 10 µM",55.2%
same,"viability, T/C",[11],49.1%
same,"viability, T/C",[12],49.6%
same,"viability, T/C","second compound 1 µM, first compound 0.316 µM",59.6%
same,"viability, T/C","second compound 1 µM, first compound 1 µM",54.6%
same,"viability, T/C","second compound 1 µM, first compound 3.16 µM",41.4%
same,"viability, T/C","second compound 1 µM, first compound 10 µM",54.2%
